# Source: US10576086B2, “Triazine derivatives as interferon-gamma inhibitors” (University of Greenwich, priority 2015, dated 2020)
# Key:
# [1] = test system: IFN-γ production in human peripheral blood mononuclear cells (PBMCs); assay: Experiment 1: IFN-γ production by PHA-stimulated human PBMCs, ELISA; assay type: cell-based; settings: for IFN-γ Concentration: PHA 5 μg/ml; for IFN-γ Concentration, Mean: 24 h
# Procedure: The ex vivo activity of various compounds towards suppression of IFN-γ production in human peripheral blood mononuclear cells (PBMCs) was studied.
# […] They were not taking any other prescribed medication that could interfere with the results.
# The blood was transferred into 50 ml centrifuge tubes (Corning, USA) containing heparin sodium salt 37.5 mg heparin powder diluted in 300-500 μl phosphate buffered saline (PBS) for 50 ml blood), and centrifuged at 2000 rpm for 10 minutes, and the plasma portion was separated. The plasma was further centrifuged at 3000 rpm for 10 minutes, and the supernatant separated and kept for later use.
# The blood cells from the initial centrifugation were diluted with an equal volume of RPMI-1640 (Sigma, UK), and layered (2:1) onto Lymphoprep (Axis-Shield, Norway) in 25 ml universal tubes (Bibby Sterilin, UK) for density gradient centrifugation at 2500 rpm for 30 minutes.
# PBMCs (lymphocytes and monocytes) were then removed from the interface, diluted in an equal volume of RPMI-1640 and washed twice by centrifugation at 3000 rpm for 10 minutes.
# For testing, the PBMCs were re-suspended in a known volume of culture medium containing RPMI-1640 supplemented with 2 mM L-glutamine, 100 U penicillin, and 100 μg streptomycin (Sigma, UK).
# The cell count was determined by the use of a haemocytometer using 10 μl of the cell suspension. The number of cells was determined based on a count in 5 random 1 mm squares.
# The cell solution was then diluted with the supplemented RPMI-1640 medium to ensure a cell count of 2×10^6 cells/ml.
# The PBMC suspension was added to tissue culture tubes (Bibby Sterilin, UK) with 5% autologous plasma, 5 μg/mlphytohaemaglutinin (PHA) to stimulate T-lymphocyte IFN-γ production, and a solution containing various concentrations of the compound to be studied. A control containing no compound was also cultured for each subject.
# In the case of lamotrigine, the isethionate salt was used, and diluted with RPMI-1640 to produce 100 μM, 30 μM, 10 μM and 3 μM solutions that were tested on PBMCs from the first three subjects. With PBMC's from the other two subjects, a 300 μM solution was also tested.
# For sipatrigine, the mesylate salt was used, and diluted with RPMI-1640 to produce 30 μM, 10 μM, 3 μM and 1 μM solutions. It was tested on PBMCs from the first three subjects only.
# (§1) The tubes were incubated at 37° C. for 24 hours under a 5% CO2 atmosphere. After incubation, the cells (>75% viable according to trypan blue test) were centrifuged at 3000 prm for 10 minutes, and the cell-free supernatants were collected and stored at −70° C. before analysis for IFN-γ.
# Levels of IFN-γ produced by the PBMCs were determined by the DuoSet ELISA Development system for human IFN-γ (RD Systems, UK), with a sensitivity of 15.6-1000 pg/ml.
# Capture antibody, detection antibody, standard and streptavidin-HRP (streptavidin conjugated to horseradish peroxidase) were provided. A 96-well microtitre plate (Corning CoStar, flat bottom, polystyrene, high binding microtitre plate, UK) was coated with 100 μl per well of capture antibody (mouse anti-human IFN-γ at 4.0 μg/ml), sealed and incubated overnight. Unbound capture antibody was washed from the wells three times, using a wash buffer (0.05% Tween 20 in PBS). Block buffer (1% bovine serum albumin (BSA) in PBS) was then added. After incubation for 1 hour, the wells were washed, and sample culture supernatants or standards were added. A 7-point standard curve (in the range 15.6-1000 pg/ml) was produced from […] recombinant human IFN-γ using 2-fold serial dilutions in reagent diluent (0.1% BSA, 0.05% Tween 20 in tris-buffered saline (20 mM Trizma base, 150 mM NaCl)). The sealed plates were left to incubate for 2 hours.
# After further washing, the detection antibody (biotinylated goat anti-human IFN-γ at 175 ng/ml) was added, and the plates sealed and incubated for a further 2 hours. […]
# PBMCs = assay: Experiment 1: PBMC viability, trypan blue exclusion; assay type: cell-based, human; settings: after 24 h incubation
# Procedure: Cell viability was checked using trypan blue exclusion, using 0.04% trypan blue solution (0.4% trypan blue solution (Sigma, UK) diluted 10× with PBS). 10 μl trypan blue solution was mixed with 10 μl cell suspension, and after 5 minutes was mounted onto the haemocytometer. The total number of cells, and the total number of viable (colourless) cells were counted in three 1 mm squares. Viability was greater than 85% in all cases.
# as §1
structure (smiles),measurement,setting,value
"Nc1nnc(-c2cccc(Cl)c2Cl)c(N)n1 [Lamotrigine, 3,5-diamino-6-(2,3-dichlorophenyl)-1,2,4-triazine]",IFN-γ Concentration,"[1]; 3 μM, Subject 1, 24 h",1153.13 pg/mL
same,IFN-γ Concentration,"[1]; 3 μM, Subject 2, 24 h",1238.68 pg/mL
same,IFN-γ Concentration,"[1]; 3 μM, Subject 3, 24 h",1641.69 pg/mL
same,IFN-γ Concentration,"[1]; 3 μM, Subject 4, 24 h",937.30 pg/mL
same,IFN-γ Concentration,"[1]; 3 μM, Subject 6, 24 h",1305.54 pg/mL
same,"IFN-γ Concentration, Mean","[1]; 3 μM, mean of five subjects",1255.27 pg/mL
same,IFN-γ Concentration,"[1]; 10 μM, Subject 1, 24 h",923.32 pg/mL
same,IFN-γ Concentration,"[1]; 10 μM, Subject 2, 24 h",1307.46 pg/mL
same,IFN-γ Concentration,"[1]; 10 μM, Subject 3, 24 h",1180.21 pg/mL
same,IFN-γ Concentration,"[1]; 10 μM, Subject 4, 24 h",895.04 pg/mL
same,IFN-γ Concentration,"[1]; 10 μM, Subject 6, 24 h",1227.25 pg/mL
same,"IFN-γ Concentration, Mean","[1]; 10 μM, mean of five subjects",1106.66 pg/mL
same,IFN-γ Concentration,"[1]; 30 μM, Subject 1, 24 h",872.99 pg/mL
same,IFN-γ Concentration,"[1]; 30 μM, Subject 2, 24 h",1089.69 pg/mL
same,IFN-γ Concentration,"[1]; 30 μM, Subject 3, 24 h",897.48 pg/mL
same,IFN-γ Concentration,"[1]; 30 μM, Subject 4, 24 h",853.66 pg/mL
same,IFN-γ Concentration,"[1]; 30 μM, Subject 6, 24 h",1191.37 pg/mL
same,"IFN-γ Concentration, Mean","[1]; 30 μM, mean of five subjects",981.04 pg/mL
same,IFN-γ Concentration,"[1]; 100 μM, Subject 1, 24 h",834.21 pg/mL
same,IFN-γ Concentration,"[1]; 100 μM, Subject 2, 24 h",886.41 pg/mL
same,IFN-γ Concentration,"[1]; 100 μM, Subject 3, 24 h",392.96 pg/mL
same,IFN-γ Concentration,"[1]; 100 μM, Subject 4, 24 h",775.28 pg/mL
same,IFN-γ Concentration,"[1]; 100 μM, Subject 6, 24 h",1095.88 pg/mL
same,"IFN-γ Concentration, Mean","[1]; 100 μM, mean of five subjects",796.95 pg/mL
same,IFN-γ Concentration,"[1]; 300 μM, Subject 4, 24 h",495.48 pg/mL
same,IFN-γ Concentration,"[1]; 300 μM, Subject 6, 24 h",798.32 pg/mL
same,"IFN-γ Concentration, Mean","[1]; 300 μM, mean of two subjects",646.90 pg/mL
same,"inhibition of IFN-γ production, trend","[1]; 300 μM, two subjects, no significance value calculated",continuing trend towards further increased inhibition
same,"inhibition of IFN-γ production, significance recalculated without subject 3","[1]; 10, 30 and 100 μM, four subjects",statistically significant (P<0.05) inhibition of IFN-γ production
same,inhibition of IFN-γ production (in words),"[1]; Experiment 1, human PBMCs",inhibits the amount of IFN-γ produced by the PBMCs
same,reduction in IFN-γ production,"[1]; Subject 3, 100 μM",75%
same,"reduction of IFN-γ produced by PBMCs, significance vs control","[1]; concentrations of 10 to 100 μM, paired Student's t-test",statistically significant (P<0.05) reductions
same,effect on PBMC viability,PBMCs,did not appear to alter PBMC viability
